Results on 7 molecules are retold here after patent US7985586B2, “Oligodendrocyte precursor cell composition and methods of use” (Georgia Health Sciences University, priority 2008, dated 2011).

The conditions of series [1]: cited from earlier work.
Series [2] concerns oligodendrocyte precursors (ODPCs) from EB-derived cells. The series is described as follows: Generation of iODPCs from EB-derived cells treated with S18 and S1P or S1P analogs. Particulars: for effect on the number of ODPCs / ODPCs [% of total cells]: S1P 1 μM, VPC24191 or SEW2871 300 nM, FTY720 300 nM; for increase of the number of oligodendrocyte precursors (ODPCs): in vitro, combination with S18; for ODPCs [% of total cells]: in combination with S18, n=4 independent experiments. In kind it is cell-based, mouse. The method, then:
Pre-implantation blastocyst-derived ES cells (ES-J1, Rosa26, E14) were grown on γ-irradiated feeder fibroblasts, and neural differentiation was induced by serum deprivation of EBs as previously described. Attached EBs were dissociated and EB-derived cells (EBCs) plated on polyornithin/laminin-coated dishes. At this stage, cells were grown in DMEM/F12 supplemented with N2 and FGF-2 (EB medium). EBCs acquire all characteristics of genuine NPCs, including expression of nestin. Sox1, and FGFR1. In the presence of FGF-2, NPCs can be dissociated and propagated at >80% homogeneity.
(§1) This protocol was modified using S18 or S1P (or its analogs) for incubation of differentiating ES cells at the EB stage prior to and after dissociation. After incubation with 50-100 μM S18 and/or 0.1-2 μM S1P or S1P analogs for 48 h, EBCs were dissociated and then immediately re-plated, and further incubated with NP medium supplemented with 50-100 μM S18 and 0.1-2 μM S1P or S1P analogs. NPCs were either transplanted into brain or spinal cord or in vitro differentiated in differentiation medium.
For incubation with S18 and S1P (or S1P) analogs add: 50-100 μM S18; 0.1-2 μM S1P or S1P analogs (FTY720, SEW2871, VPC24191 or related compounds) to EB and NP medium. The incubation time can vary from 24-72 h.
(§2) In vitro, treatment with a combination of S18 and S1P or S1P analogs (FTY720, VPC24191, SEW2871) increases the number of oligodendrocyte precursors (ODPCs) by about 20-fold (Table 1). […] This observation was unexpected and novel, because it has not been shown before that combined treatment with S18 and S1P analogs can enrich for ODPCs.

The subject of series [3] is EB-derived cells (EBCs). Put plainly: S18-induced apoptosis / elimination of EB-derived cell sub-populations and protection by S1P analogs. The conditions noted are these: for protection of S18-sensitive NPCs (NPC2) from apoptosis: added to medium with S18. In kind it is cell-based, mouse. The method, then: FIG. 4 illustrates making sphingolipid-enhanced neural stem cells (SENSe). FIG. 4A illustrates that mouse ES cells were differentiated to the attached EB stage and immunocytochemistry performed using antibodies against Oct-4 and S1P1. NPC2 cells show Oct-4(−) and S1P1(+). […] Expression of S1P1 protects them from S18-induced apoptosis if S1P or its analogs are added to the medium. FIG. 4B provides that there are three sub-populations of EB-derived cells (EBCs): 1) Residual pluripotent (Oct-4(+)/PAR-4(+)/S1P1(−) cells. […] They are not protected by S1P1; 2) NPC1 cells are Oct-4(−)/PAR-4(−)/S1P1(+) and represent nestin-expressing neural progenitors. […] FIG. 4C illustrates that NPC2 cells are stained for A2B5 epitope, a marker for oligodendrocyte precursor cells.
as §1, §2

Series [4] concerns EB-derived cells (EBCs). The conditions noted are these: stage of forming NPCs; ref [5]; cited from earlier work.
A further series concerns primitive ectoderm cells. Particulars: suspension EBs; ref [3]; cited from earlier work.

Structures are written as SMILES. “Also recorded” adds a separate entry of the source.

With `CCCCCCCCCCCCC/C=C/[C@@H](O)[C@H](CO)NC(C)=O` [C2 ceramide, N-acetyl sphingosine], the “water solubility compared with physiological ceramide species (e.g. C16 ceramide)” value in series [1] is on record as “several-fold higher”.

As to `CCCCCCCCc1ccc(CCC(N)(CO)CO)cc1` [FTY720, 2-amino-2-[2-(4-octylphenyl)ethyl]propane-1,3-diol], in series [2], the “effect on the number of ODPCs” value is “elevate the number of ODPCs” and the “increase of the number of oligodendrocyte precursors (ODPCs)” value (shortened to “increase”) is listed as “about 20 fold”. Further, the “protection of S18-sensitive NPCs (NPC2) from apoptosis” value with EB-derived cells (EBCs) [3] is “rescue S18-sensitive NPCs from apoptosis; also recorded: can be protected”.

As to `CCCCCCCCCCCCC/C=C/[C@@H](O)[C@@H](N)COP(=O)(O)O` [S1P, sphingosine-1-phosphate], in series [2], the “effect on the number of ODPCs” value is listed as “elevate the number of ODPCs” and the “increase” value is recorded as “about 20 fold”. Further, the “ODPCs [% of total cells]” value in series [2] (VPC23019 2 μM) was 12 +/− 3%. Also, the “protection of S18-sensitive NPCs (NPC2) from apoptosis” value in the series with EB-derived cells (EBCs) [3] is listed as “rescue S18-sensitive NPCs from apoptosis; also recorded: can be protected”.

In the case of `CCCCCCCC/C=C\CCCCCCCC(=O)NC(CO)CO` [S18, N-(2-hydroxy-1-(hydroxymethyl)ethyl)-oleoylamide], the “elimination of Oct-4(+) cells from differentiating ES cells” value in the series on EB-derived cells (EBCs) [4] is listed as “eliminates Oct-4(+) cells”. The “S18-induced apoptosis in NPC1 (Oct-4(−)/PAR-4(−)/S1P1(+)) cells” value in the series with EB-derived cells (EBCs) [3] is recorded as “do not undergo S18-induced apoptosis”. Also, the “elimination of teratoma-forming residual pluripotent (Oct-4(+)/PAR-4(+)/S1P1(−)) cells” value with EB-derived cells (EBCs) [3] (ES cell graft / EB-derived cells) is listed as “specifically eliminate teratoma-forming cells; also recorded: are eliminated by S18”. Moreover, the “elimination of NPC2 (Oct-4(−)/PAR-4(+)/S1P1(+)) cells” value in the series with EB-derived cells (EBCs) [3] (without S1P or FTY720) was “is also eliminated by S18; also recorded: are eliminated by S18”. Further, the “primitive ectoderm formation after ceramide depletion” value with primitive ectoderm cells was “restores primitive ectoderm formation”.

For the molecule `FC(F)(F)c1cccc(-c2noc(-c3cc(-c4ccccc4)c(C(F)(F)F)s3)n2)c1` [SEW2871], in series [2], the “effect on the number of ODPCs” value is recorded as “elevate the number of ODPCs” and the “increase” value is listed as “about 20 fold”. Besides, the “ODPCs [% of total cells]” value in series [2] (VPC23019 2 μM) is recorded as 18 +/− 3%.

Take `CCCCCCCCc1cccc(NC(=O)[C@H](N)COP(=O)(O)O)c1` [VPC23019]: in series [2] (VPC23019 2 μM), the “effect of S1P1 antagonist on the S1P and FTY720 effect” value was “inhibits the effect of S1P and FTY720”.

With `CCCCCCCCc1ccc(NC[C@H](N)COP(=O)(O)O)cc1` [VPC24191], in series [2], the “effect on the number of ODPCs” value is given as “elevate the number of ODPCs” and the “increase” value is “about 20 fold”. Besides, the “ODPCs [% of total cells]” value in series [2] (VPC23019 2 μM) is on record as 28 +/− 5%.
